Laboratory results published in article PMC10167355, “Optimized spirooxindole-pyrazole hybrids targeting the p53-MDM2 interplay induce apoptosis and synergize with doxorubicin in A549 cells” (Scientific Reports, 2023).
“Also recorded” adds a separate entry of the source.

How the values were obtained:
MDM2 = assay: Western blot of MDM2 level in A549 cells; format: cell-based, human
Procedure: (§1) A549 cells were treated with different concentrations of the molecules as indicated. Cell extracts were prepared as described. Ten-20 μg of total proteins were resolved on 4–15% Mini protean TGX precast gels (Bio-Rad) and transferred to nitrocellulose membrane using 1704158 Trans-Blot Turbo Mini NC Transfer Packs (Bio-Rad) in a Trans-Blot Turbo apparatus (Bio-Rad). Membranes were blocked with 5% non-fat dry milk in 0.1% Tween-20 in PBS for 1 h, then incubated for 1 h at room temperature or overnight at 4 °C with the appropriate primary antibody. The following antibodies were employed: anti-p53 (DO-1, sc-126, Santa Cruz Biotechnology, 1:20.000), anti-p21 (2946, Cell Signaling, 1:2000), anti-MDM2 (SMP14, sc-965, Santa Cruz Biotechnology, 1:200), anti β-actin (AC-74, Sigma-Aldrich, 1:30.000); secondary anti-mouse IgG peroxidase conjugate (A9044, Sigma–Aldrich, 1:10.000) and secondary anti-rabbit peroxidase conjugate (A9169, Sigma-Aldrich, 1: 12.000). Detection was carried out with ECL FAST PICO (ECL-1002, Immunological Sciences, Roma, Italy). Chemiluminescence was analysed by Alliance LD, UVITEC Cambridge (Cambridge, UK).

[1] = system: MDA-MB-453 (breast; mutant p53); assay: MTT antiproliferative assay, MDA-MB-453; format: cell-based; settings: Homo sapiens; MDA-MB-453, MTT, 72 h treatment, mean ± SD of 5–6 data
Procedure: (§2) Human tumor cell lines A2780 [ovary, adenocarcinoma, accession number HTL98008, obtained from Interlab Cell Line Collection (ICLC), Genova, Italy], A549 (lung, carcinoma, HTL03001, ICLC), MDA-MB-453 (breast, carcinoma, HTL01013, ICLC), and HepG2 (liver, carcinoma, HB-8065, American Type Culture Collection, Rockville, MA, USA ) were plated at 1.4 × 10^4/ml, 0.65 × 10^4/mL, 4.7 × 10^4/mL, and 1.0 × 10^4/mL, respectively, in 180 μL complete medium (RPMI 1640 for A2780 and A549 and DMEM for MDA-MB-453 and HepG2) into flat-bottomed 96-well microtiter plates. After 6–8 h cells were treated with 20 μL containing five 1:10 fold concentrations of our compounds diluted in FCS containing 3% DMSO. As normal non-cancer cell targets we used peripheral blood lymphocytes obtained from three healthy volunteers, isolated by gradient centrifugation (Lympholyte-H Cell Separation Media, EuroClone, Pero, MI, Italy) and stimulated with 1% phytohemagglutinin and 100 U/ml recombinant IL-2. One week after stimulation cells were ready for use at 15,000/well.
In both cases, after 72 h treatment, the MTT assay was applied as described elsewhere. The IC50 values were calculated from the analysis of single concentration–response curves, each final value is the mean of 5–6 experiments. IC100 and IC75 were extrapolated from the mean concentration–response curves.

A549 cells = assay: Annexin-V-FITC / propidium iodide apoptosis assay; format: cell-based, human; settings: A549, compounds at their specific IC75s, three days
Procedure: The induction of apoptosis was evaluated in A549 cells characterized by wild-type p53 and MDM2 proteins. They were plated at the opportune concentration (see above) into 25 cm^2 flasks in 10 mL complete medium. After 6–8 h the compounds were added at their specific IC75s, as previously calculated by the MTT assay.
All floating and adherent cells were harvested three days later, washed with normal saline buffer, and apoptosis determined by double staining with Annexin-V-FITC and propidium iodide (PI) (rh AnnexinV/FITC Kit, Bender MedSystem GmbH, Vienna, Austria). Briefly, 0.5 × 10^6 cells were resuspended in binding buffer 1× and stained with 5 μL of Annexin-V-FITC. After 10 min incubation 10 μL of PI were added and samples incubated for 5 min. Samples were immediately analyzed using a Flow Cytometer (FACScan, BD Biosciences, Milano, Italy) with dedicated software.

p21 = assay: Western blot of p21 level in A549 cells; format: cell-based, human; settings: A549
Procedure: as §1

activated PBL = assay: MTT assay on normal PBL activated with PHA and recombinant IL-2; format: cell-based; settings: Homo sapiens, mean ± SD of 4–6 IC50 values
Procedure: as §2
In both cases, after 72 h treatment, the MTT assay was applied as described elsewhere. […] IC100 and IC75 were extrapolated from the mean concentration–response curves.

p53 = assay: Western blot of p53 level in A549 cells; format: cell-based, human
Procedure: as §1

[2] = A549, drug concentration equivalent to IC75 (30 µM), fold over mock
[3] = A549, 0.2 µM derivative alone or 14 µM doxorubicin alone
[4] = A549, 0.2 µM derivative plus 14 µM doxorubicin

Cc1c(C(=O)C2C(c3ccc(C(F)(F)F)cc3)C3CSCN3C23C(=O)Nc2ccccc23)cnn1-c1ccccc1 (stereo not drawn) [8k, 6'-(5-Methyl-1-phenyl-1H-pyrazole-4-carbonyl)-7'-(4-(trifluoromethyl)phenyl)-1',6',7',7a'-tetrahydro-3'H-spiro[indoline-3,5'-pyrrolo[1,2-c]thiazol]-2-one]
MDM2 modulation, dose–response (MDM2; A549, 24 h, 0.01, 0.1, 1, 10 µM): induced MDM2 down regulation at any concentration; also recorded: dose-dependent down regulation of MDM2
MDM2 level (MDM2; [2]): downmodulated MDM2; also recorded: clear down modulation; also recorded: down regulation of MDM2
MDM2 level, single agent (MDM2; [3]): slight but not significant MDM2 increase
MDM2 level, combined treatment compared to doxorubicin alone (MDM2; [4]): no further increases
IC50 [1]: 21.4 µM
apoptotic activity (A549 cells): highly significant apoptotic activity; also recorded: considerable high level of apoptosis
p21 level, single agent (p21; 0.2 µM derivative alone or 14 µM doxorubicin alone): did not increase
p21 level, combined treatment compared to doxorubicin alone (p21; 0.2 µM derivative plus 14 µM doxorubicin): no further increases
melting point: 138 to 139 °C
IC50 (activated PBL; PBL A): 49.8 ± 3.2 µM
IC50 (activated PBL; PBL B): 55.3 ± 1.4 µM
IC50 (activated PBL; PBL C): 50.9 ± 1.2 µM
p53 level (p53; [2]): did not induce any changes; also recorded: did not induce p53
p53 level, single agent (p53; [3]): did not increase
p53 level, combined treatment compared to doxorubicin alone (p53; [4]): no further increases
